ChEMBL document CHEMBL5370643, “Discovery of MK-1468: A Potent, Kinome-Selective, Brain-Penetrant Amidoisoquinoline LRRK2 Inhibitor for the Potential Treatment of Parkinson's Disease” (J Med Chem, 2023)

Columns and labels:
[1] = target: Voltage-gated inwardly rectifying potassium channel KCNH2 (Homo sapiens, UniProt Q12809); assay: Inhibition of hERG expressed in CHO cells by QPatch voltage clamp assay
[2] = Total clearance in Wistar-Han rat at 3 mg/kg, iv measured after 24 hrs by LC-MS/MS analysis; assay type: ADME, organism-based; details: in vivo
[3] = Mutagenicity in Salmonella typhimurium TA98 at 30 to 5000 ug/plate incubated for 48 hrs in absence of Wistar-Han rat S9 fraction by Ames test; assay type: toxicity; details: salmonella enterica subsp. enterica serovar typhimurium, s9, 48 h
[4] = Genotoxicity in human TK6 cells assessed as induction of DNA damage upto 31.9 uM; assay type: toxicity, cell-based; details: tk6, 31.9 µM

Voltage-gated inwardly rectifying potassium channel KCNH2, sequence (Q12809 whole entry): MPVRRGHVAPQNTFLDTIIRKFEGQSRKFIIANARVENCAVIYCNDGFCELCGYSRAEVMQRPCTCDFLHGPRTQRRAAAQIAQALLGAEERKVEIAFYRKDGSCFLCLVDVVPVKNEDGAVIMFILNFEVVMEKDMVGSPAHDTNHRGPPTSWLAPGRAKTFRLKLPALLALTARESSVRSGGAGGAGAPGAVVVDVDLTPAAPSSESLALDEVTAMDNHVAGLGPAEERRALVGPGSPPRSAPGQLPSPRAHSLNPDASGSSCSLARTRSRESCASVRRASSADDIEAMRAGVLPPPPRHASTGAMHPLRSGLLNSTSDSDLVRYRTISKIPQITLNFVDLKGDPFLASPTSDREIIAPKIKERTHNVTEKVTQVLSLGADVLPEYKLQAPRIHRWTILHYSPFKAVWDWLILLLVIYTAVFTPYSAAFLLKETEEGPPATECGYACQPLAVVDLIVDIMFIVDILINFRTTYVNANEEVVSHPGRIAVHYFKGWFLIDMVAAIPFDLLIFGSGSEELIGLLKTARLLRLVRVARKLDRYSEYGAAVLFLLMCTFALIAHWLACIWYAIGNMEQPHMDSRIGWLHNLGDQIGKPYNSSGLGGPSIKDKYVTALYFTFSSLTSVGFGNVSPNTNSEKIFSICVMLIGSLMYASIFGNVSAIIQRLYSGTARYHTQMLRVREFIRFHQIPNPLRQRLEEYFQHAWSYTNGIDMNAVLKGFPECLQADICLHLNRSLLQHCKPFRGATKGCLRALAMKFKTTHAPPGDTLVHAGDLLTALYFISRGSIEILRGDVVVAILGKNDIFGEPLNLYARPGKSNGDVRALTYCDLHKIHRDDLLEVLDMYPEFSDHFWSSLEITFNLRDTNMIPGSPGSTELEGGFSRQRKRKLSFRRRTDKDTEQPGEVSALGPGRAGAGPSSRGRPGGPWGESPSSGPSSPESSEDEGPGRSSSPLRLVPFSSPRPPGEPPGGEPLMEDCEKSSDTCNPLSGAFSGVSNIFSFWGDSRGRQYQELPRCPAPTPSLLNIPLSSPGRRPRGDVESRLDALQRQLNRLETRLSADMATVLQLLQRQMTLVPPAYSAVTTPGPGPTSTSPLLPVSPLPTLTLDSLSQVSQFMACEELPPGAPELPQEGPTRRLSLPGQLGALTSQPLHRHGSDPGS

- clearance [2]: 56 mL/min/kg
SMILES: C[C@@]1(N2CCN(c3cc4cc(NC(=O)[C@H]5CC56CCOCC6)ncc4cc3Cl)CC2)COC[C@@H]1O
- IC50 [1]: > 60 µM
- Activity [3]: Non-Toxic
- Activity [4]: Non-Toxic
